Results from the NIST ThermoML archive (doi:10.1021/acs.jced.6b00455).

Experiment: mn = molality of the nth substance listed, in mol/kg
Conditions: 101 kPa, Liquid, Alternating current cell with electrodes

C[N+](C)(C)CCO.O=C([O-])C(F)(F)C(F)(F)C(F)(F)C(F)(F)F [(2-hydroxyethyl)trimethylammonium perfluoropentanoate] + O
Conditions	electrical conductivity [S/m]
303.15 K, m1 = 0.02055	0.138
303.15 K, m1 = 0.02116	0.142
303.15 K, m1 = 0.02184	0.146
303.15 K, m1 = 0.02259	0.15
303.15 K, m1 = 0.02308	0.153
303.15 K, m1 = 0.0237	0.157
303.15 K, m1 = 0.0247	0.164
303.15 K, m1 = 0.02557	0.168
308.15 K, m1 = 0.000318	0.0029
308.15 K, m1 = 0.000786	0.007
308.15 K, m1 = 0.001299	0.0115
308.15 K, m1 = 0.001909	0.0169
308.15 K, m1 = 0.002425	0.021
308.15 K, m1 = 0.002911	0.0256
308.15 K, m1 = 0.003184	0.0277
308.15 K, m1 = 0.003945	0.035
308.15 K, m1 = 0.004657	0.0404
308.15 K, m1 = 0.005206	0.0449
308.15 K, m1 = 0.005836	0.0493
308.15 K, m1 = 0.006331	0.0529
308.15 K, m1 = 0.006772	0.0563
308.15 K, m1 = 0.007443	0.0629
308.15 K, m1 = 0.008421	0.0711
308.15 K, m1 = 0.008974	0.0763
308.15 K, m1 = 0.009871	0.0832
308.15 K, m1 = 0.01044	0.0864
308.15 K, m1 = 0.01092	0.0897
308.15 K, m1 = 0.01159	0.0936
308.15 K, m1 = 0.01221	0.0982
308.15 K, m1 = 0.01248	0.101
308.15 K, m1 = 0.01314	0.104
308.15 K, m1 = 0.01361	0.108
308.15 K, m1 = 0.01442	0.114
308.15 K, m1 = 0.01492	0.119
308.15 K, m1 = 0.01568	0.125
308.15 K, m1 = 0.0164	0.13
308.15 K, m1 = 0.01694	0.134
308.15 K, m1 = 0.01787	0.14
308.15 K, m1 = 0.01861	0.145
308.15 K, m1 = 0.01941	0.151
308.15 K, m1 = 0.02104	0.162
308.15 K, m1 = 0.02193	0.168
308.15 K, m1 = 0.02283	0.173
308.15 K, m1 = 0.02369	0.178
308.15 K, m1 = 0.02427	0.182
308.15 K, m1 = 0.02502	0.188
308.15 K, m1 = 0.02563	0.192
313.15 K, m1 = 0.000187	0.0015
313.15 K, m1 = 0.000688	0.0067
313.15 K, m1 = 0.001827	0.0169
313.15 K, m1 = 0.002361	0.0217
313.15 K, m1 = 0.002859	0.0266
313.15 K, m1 = 0.003424	0.0322
313.15 K, m1 = 0.00399	0.0371
313.15 K, m1 = 0.004604	0.0421
313.15 K, m1 = 0.005344	0.0499
313.15 K, m1 = 0.005863	0.0548
313.15 K, m1 = 0.006345	0.0593
313.15 K, m1 = 0.006846	0.064
313.15 K, m1 = 0.008054	0.074
313.15 K, m1 = 0.008628	0.079
313.15 K, m1 = 0.009481	0.0864
313.15 K, m1 = 0.009912	0.0907
313.15 K, m1 = 0.01048	0.0955
313.15 K, m1 = 0.01099	0.0999
313.15 K, m1 = 0.01153	0.104
313.15 K, m1 = 0.0121	0.11
313.15 K, m1 = 0.01268	0.114
313.15 K, m1 = 0.01328	0.119
313.15 K, m1 = 0.01388	0.124
313.15 K, m1 = 0.01459	0.13
313.15 K, m1 = 0.01545	0.136
313.15 K, m1 = 0.01599	0.141
313.15 K, m1 = 0.0169	0.148
313.15 K, m1 = 0.01817	0.157
313.15 K, m1 = 0.01879	0.162
313.15 K, m1 = 0.01965	0.169
313.15 K, m1 = 0.02019	0.172
313.15 K, m1 = 0.02082	0.177
313.15 K, m1 = 0.02134	0.18
313.15 K, m1 = 0.02194	0.184
313.15 K, m1 = 0.02255	0.19
313.15 K, m1 = 0.02328	0.195
313.15 K, m1 = 0.02409	0.2
